IC50 data for eight compounds are collected here from patent publication US20250163074A1, “CDK Inhibitors And Their Use As Pharmaceuticals” (Prelude Therapeutics Incorporated, priority 2020, published 2025).

Experiment [1] concerns MCF7 adenocarcinoma cell line. Briefly: Cell proliferation studies in MCF7 cells (ATP-Lite). Format: cell-based. The settings on record: Homo sapiens, 240 h, 10 days incubation, cell viability by ATP-Lite luminescence, read-out: PROLIFERATION_CTG_MCF7 IC50. Summed up: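 MCF7 cells, seeded at 100 or 200 cells/well, were exposed for 10 days at 37 °C to a 9-point, 3-fold dilution series in quadruplicate, with media exchange and re-dosing on day 5. Viability was read by ATP-Lite luminescence, normalized to background and DMSO, and fitted for IC50.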

For the next experiment, the target named is CDK6/Cyclin D1 (Homo sapiens (Human), UniProt Q00534). Put plainly: CDK6/CyclinD1 enzymatic activity assay (TR-FRET). The class given is biochemical. The following applies: CDK6/Cyclin D1 1 nM, ATP 250 μM, read-out: CDK6_D1 IC50. How it is done: CDK6/CyclinD1 Enzymatic Activity Assay
Sequence of CDK6/Cyclin D1 (Q00534 whole entry): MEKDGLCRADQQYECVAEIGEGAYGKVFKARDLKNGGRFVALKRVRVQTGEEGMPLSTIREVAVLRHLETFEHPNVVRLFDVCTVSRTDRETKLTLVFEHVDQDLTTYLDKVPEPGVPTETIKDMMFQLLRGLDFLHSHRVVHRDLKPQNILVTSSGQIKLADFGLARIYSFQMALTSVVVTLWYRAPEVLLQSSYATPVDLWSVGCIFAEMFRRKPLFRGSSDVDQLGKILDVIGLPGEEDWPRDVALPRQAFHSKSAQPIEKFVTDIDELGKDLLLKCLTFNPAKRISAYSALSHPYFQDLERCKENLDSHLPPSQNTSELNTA
Sequence of CDK6/Cyclin D1 (P24385 whole entry partner): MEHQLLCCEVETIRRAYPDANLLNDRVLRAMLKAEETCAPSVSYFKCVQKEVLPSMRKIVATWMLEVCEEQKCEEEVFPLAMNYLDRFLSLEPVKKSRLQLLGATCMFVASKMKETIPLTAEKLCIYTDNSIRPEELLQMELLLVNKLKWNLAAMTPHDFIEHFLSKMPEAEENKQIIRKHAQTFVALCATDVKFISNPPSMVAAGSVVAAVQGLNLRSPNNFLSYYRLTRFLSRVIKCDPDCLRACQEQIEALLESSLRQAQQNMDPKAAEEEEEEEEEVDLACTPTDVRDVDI
The inhibitory activity of compounds was evaluated in vitro using TR-FRET assay with white 384-well low volume microplate (Greiner Bio-One). CDK6/Cyclin D1 catalyzed phosphorylation of peptide in the presence and absence of compounds was measured and used in IC50 determination. Recombinant protein complex CDK6/Cyclin D1, expressed from insect cell, was purchased from ProQinase. Testing compounds were dissolved in DMSO at 0.1 mM and tested in 9-dose IC50 mode. The reaction mixture was prepared by mixing CDK6/Cyclin D1 (1 nM final), ULight-4E-BP1 (100 nM final, Perkinelmer, TRF0128-D), and ATP (250 μM final) in assay buffer (20 mM of HEPES pH 7.4, 1 mM of EGTA, 0.05% BSA, 0.005% Tween 20, and 1 mM TCEP). The compound of interest in DMSO was added to each well in 3-fold serial dilution by dispenser (TECAN D300E). After 20 minutes preincubation at room temperature, 0.1 μL MgCl2 (10 mM final) was added to initiate the reaction. Following a 60 minutes incubation at 37° C., the reaction was stopped by addition of 2 μL of quenching buffer consisting of Lance detection buffer (Perkinelmer CR97-100C), 2 nM LANCE Ultra Europium-anti-P-4E-BP1 (Perkinelmer, TRF0216-D), 10 mM EDTA, and incubate at room temperature for additional 60 minutes in dark. The reaction signal was measured by Envision multimode plate reader (PerkinElmer, 2102-0010). IC50 values were determined by fitting the data to the standard 4 parameters with Hill Slope using GraphPad Prism software.
(In general: TR-FRET usually uses a lanthanide donor and a delayed reading to cut background.)

For the next experiment, the target named is CDK4/Cyclin D1 (Homo sapiens (Human), UniProt P11802). Briefly: CDK4/CyclinD1 enzymatic activity assay (TR-FRET). Format: biochemical. The settings on record: CDK4/CyclinD1 1 nM, ATP 2 mM, read-out: CDK4_D1 IC50. In short, it runs like this: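 Insect-cell CDK4/Cyclin D1 (1 nM) with ULight-4E-BP1 (100 nM) and 2 mM ATP in HEPES pH 7.4 buffer, preincubated 20 min with compound (9-dose, 3-fold dilutions); 10 mM MgCl2 started the reaction, run 60 min at 37 °C. EDTA/Eu-anti-phospho-4E-BP1 TR-FRET detection; IC50 from 4-parameter Hill fit.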
Sequence of CDK4/Cyclin D1 (P11802 whole entry): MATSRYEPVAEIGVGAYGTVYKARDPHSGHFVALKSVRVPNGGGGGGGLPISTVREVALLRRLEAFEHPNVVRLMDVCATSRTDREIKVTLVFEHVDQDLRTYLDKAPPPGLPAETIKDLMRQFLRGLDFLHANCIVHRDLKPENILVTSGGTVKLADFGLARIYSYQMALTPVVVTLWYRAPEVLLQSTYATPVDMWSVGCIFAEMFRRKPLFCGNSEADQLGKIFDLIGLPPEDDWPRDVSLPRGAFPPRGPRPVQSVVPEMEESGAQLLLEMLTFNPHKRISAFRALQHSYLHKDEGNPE
Sequence of CDK4/Cyclin D1 (P24385 whole entry partner): as the sequence (P24385 whole entry partner) above

A value given as a limit tells only on which side of the number the result lay.

Regarding `CN1CC2(CCCC2)c2sc(-c3nc(Nc4ccc(N5CCOCC5)cn4)ncc3F)cc2C1=O` [Example 62, 2′-(5-Fluoro-2-((5-morpholino-pyridin-2-yl)amino)pyrimidin-4-yl)-5′-methyl-5′,6′-dihydro-4′H-spiro[cyclopentane-1,7′-thieno[3,2-c]pyridin]-4′-one], the IC50 in experiment [1] was 20 to 200 nM; on CDK6/Cyclin D1 it was 20 to 200 nM; at CDK4/Cyclin D1 it was no more than 20 nM.
As for `[2H]C([2H])([2H])N1C(=O)c2c(sc(-c3nc(Nc4ccc(C5CCN(C)CC5)cn4)ncc3F)c2C)C12CC2` [Example 70, 2′-[5-Fluoro-2-[[5-(1-methylpiperidin-4-yl)pyridin-2-yl]amino]pyrimidin-4-yl]-3′-methyl-5′-(trideuteriomethyl)spiro[cyclopropane-1,6′-thieno[2,3-c]pyrrole]-4′-one], the IC50 in experiment [1] was 20 to 200 nM; on CDK6/Cyclin D1, no more than 20 nM; at CDK4/Cyclin D1, no more than 20 nM.
With `Cc1c(-c2nc(Nc3ccc(C4CCN(C)CC4)cn3)ncc2F)sc2c1C(=O)NC21CC1` [Example 73, 2-[5-Fluoro-2-[[5-(1-methylpiperidin-4-yl)pyridin-2-yl]amino]pyrimidin-4-yl]-3-methylspiro[5H-thieno[2,3-c]pyrrole-6,1′-cyclopropane]-4-one], the IC50 (in experiment [1]; on CDK6/Cyclin D1; at CDK4/Cyclin D1) was no more than 20 nM throughout.
In the case of `CN1CCC(c2ccc(Nc3ncc(F)c(-c4cc5c(n4C)C4(CCCC4)CN(C)C5=O)n3)nc2)CC1` [Example 74, 2′-(5-Fluoro-2-((5-(1-methylpiperidin-4-yl)pyridin-2-yl)amino)pyrimidin-4-yl)-1′,5′-dimethyl-5′,6′-dihydrospiro[cyclopentane-1,7′-pyrrolo[3,2-c]pyridin]-4′(1′H)-one], the IC50 was 20 to 200 nM in experiment [1], 20 to 200 nM at CDK6/Cyclin D1 and no more than 20 nM on CDK4/Cyclin D1.
Consider `CN1CCC(c2ccc(Nc3ncc(F)c(-c4cc5c(s4)C4(CCOCC4)CN(C)C5=O)n3)nc2)CC1` [Example 77, 2′-(5-Fluoro-2-((5-(1-methylpiperidin-4-yl)pyridin-2-yl)amino)pyrimidin-4-yl)-5′-methyl-2,3,5,5′,6,6′-hexahydro-4′H-spiro[pyran-4,7′-thieno[3,2-c]pyridin]-4′-one], for which the results for the IC50 (in experiment [1]; on CDK6/Cyclin D1; on CDK4/Cyclin D1) were 20 to 200 nM, 20 to 200 nM and no more than 20 nM, respectively.
`Cc1cnc(Nc2ccc(C3CCN(C)CC3)cn2)nc1-c1cc2c(s1)C1(CC1)N(C)C2=O` [Example 80, 5′-Methyl-2′-(5-methyl-2-((5-(1-methylpiperidin-4-yl)pyridin-2-yl)amino)pyrimidin-4-yl)spiro[cyclopropane-1,6′-thieno[2,3-c]pyrrol]-4′(5′H)-one]: the results for the IC50 (in experiment [1]; at CDK6/Cyclin D1; on CDK4/Cyclin D1) were no more than 20 nM, 20 to 200 nM and no more than 20 nM, respectively.
Turning to `CCN1CC2(C1)CN(c1ccc(Nc3ncc(F)c(-c4cc5c(s4)C4(CCCC4)CN(C)C5=O)n3)nn1)C2` [Example 82, 2-[2-[[6-(6-Ethyl-2,6-diazaspiro[3.3]heptan-2-yl)pyridazin-3-yl]amino]-5-fluoropyrimidin-4-yl]-5-methylspiro[6H-thieno[3,2-c]pyridine-7,1′-cyclopentane]-4-one], the IC50 in experiment [1] was 20 to 200 nM; on CDK6/Cyclin D1, no more than 20 nM; on CDK4/Cyclin D1, no more than 20 nM.
Turning to `CCN1CCN(c2ccc(Nc3ncc(F)c(-c4cc5c(s4)C4(CCCC4)CN(C)C5=O)n3)nc2)C(=O)C1` [Example 86, 2-[2-[[5-(4-Ethyl-2-oxopiperazin-1-yl)pyridin-2-yl]amino]-5-fluoropyrimidin-4-yl]-5-methylspiro[6H-thieno[3,2-c]pyridine-7,1′-cyclopentane]-4-one], the IC50 is 20 to 200 nM in experiment [1], 20 to 200 nM on CDK6/Cyclin D1 and no more than 20 nM on CDK4/Cyclin D1.
